Test systems include HL-60(TB) leukemia; HOP-92 NSCLC; HS 578T breast; OVCAR-8 ovarian; NCI-H522 lung; SNB-19 CNS; EKVX NSCLC; IGROV1 ovarian; UO-31 renal; HCT-116 colon; HCT-15 colon; MCF7 breast.
What all share (assay): DTP human tumour cell line panel, 48 h

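These data come from cells grown in 96-well plates and exposed to compound for 48 hours at five concentrations. Definition used: TGI = concentration required for complete inhibition of growth.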 Some results are limits rather than exact numbers.

As a reminder, the TGI is the concentration at which net growth stops. A higher TGI goes with less potent growth arrest.

Take `C=CCCON(C(=O)OC(C)(C)C)C(C)(C)C`: the TGI with HL-60(TB) leukemia, in the assay on HOP-92 NSCLC, in the assay on HS 578T breast, in the assay on OVCAR-8 ovarian, in the assay with NCI-H522 lung and in the assay with SNB-19 CNS was more than 100 µM each time. Besides, the TGI with EKVX NSCLC, with IGROV1 ovarian, in the assay with UO-31 renal, with HCT-116 colon and in the assay on HCT-15 colon was more than 100 µM in each case.

Take `O=C1c2ccccc2C(=O)c2c(NCC(O)CO)ccc(NCC(O)CO)c21` (centres undefined): the TGI in the assay on MCF7 breast, with HL-60(TB) leukemia, in the assay on HS 578T breast, in the assay on OVCAR-8 ovarian, in the assay with NCI-H522 lung and with SNB-19 CNS was more than 100 µM each time. In addition, the TGI is more than 100 µM in the assay on EKVX NSCLC; more than 100 µM in the assay with IGROV1 ovarian; 71.2 µM with UO-31 renal; more than 100 µM in the assay with HCT-116 colon; more than 100 µM with HCT-15 colon.

Regarding `CN=C(n1ccnc1)n1ccnc1`, the TGI in the assay on MCF7 breast, in the assay with HL-60(TB) leukemia, with HS 578T breast, in the assay with OVCAR-8 ovarian, in the assay with NCI-H522 lung and in the assay with SNB-19 CNS was more than 100 µM throughout. Besides, the TGI in the assay with EKVX NSCLC, in the assay with IGROV1 ovarian, in the assay on UO-31 renal, in the assay with HCT-116 colon and with HCT-15 colon was more than 100 µM throughout.

In the case of `Cc1ccc(-n2cnc(C(=N)C#N)c2N)cc1`, the concentration for total growth inhibition (TGI) in the assay with MCF7 breast, with HL-60(TB) leukemia, in the assay with HS 578T breast, with OVCAR-8 ovarian, in the assay on NCI-H522 lung and with SNB-19 CNS was more than 100 µM each time. Also, the TGI with EKVX NSCLC, in the assay on IGROV1 ovarian, in the assay with UO-31 renal, with HCT-116 colon and in the assay with HCT-15 colon was more than 100 µM throughout.

`COc1cc(Nc2nc3ccccc3nc2C(=O)O)cc(OC)c1OC`: the total growth inhibition concentration (TGI) in the assay with HL-60(TB) leukemia is more than 100 µM; with HOP-92 NSCLC, 92.7 µM; in the assay on HS 578T breast, 92 µM; in the assay on OVCAR-8 ovarian it was more than 100 µM; with NCI-H522 lung it was more than 100 µM; in the assay on SNB-19 CNS it was more than 100 µM. In addition, the TGI in the assay with EKVX NSCLC, in the assay with IGROV1 ovarian, in the assay with UO-31 renal, in the assay on HCT-116 colon and in the assay on HCT-15 colon was more than 100 µM in each case.

For `O=[N+]([O-])c1ccc(CN(CCCl)OCCCl)cc1`, the TGI in the assay on MCF7 breast, in the assay on HL-60(TB) leukemia, in the assay with HS 578T breast, in the assay with OVCAR-8 ovarian, in the assay with NCI-H522 lung and in the assay with SNB-19 CNS was more than 100 µM each time. The TGI with EKVX NSCLC, in the assay on IGROV1 ovarian, in the assay with UO-31 renal, in the assay with HCT-116 colon and in the assay with HCT-15 colon was more than 100 µM in each case.

For `CO[C@@]12C[C@@H](C)C3=CCC(C)=C3CC1=C(C)C(=O)O2`, the TGI with HL-60(TB) leukemia, in the assay on HOP-92 NSCLC, in the assay with HS 578T breast, in the assay with OVCAR-8 ovarian, in the assay on SNB-19 CNS and in the assay with EKVX NSCLC was more than 100 µM throughout. Moreover, the TGI in the assay on IGROV1 ovarian, with UO-31 renal, in the assay with HCT-116 colon and in the assay with HCT-15 colon was more than 100 µM in each case.

Consider `COc1cc(OC)c2nc(C)c(CCCl)c(Cl)c2c1`, for which the TGI with MCF7 breast, with HL-60(TB) leukemia, with HS 578T breast, in the assay with OVCAR-8 ovarian, in the assay on NCI-H522 lung and in the assay with SNB-19 CNS was more than 100 µM throughout. Also, the TGI with EKVX NSCLC, in the assay with IGROV1 ovarian, in the assay with UO-31 renal, with HCT-116 colon and in the assay on HCT-15 colon was more than 100 µM in each case.

As for `CC1(C)[C@@H](Cn2ccc(=O)[nH]c2=O)CC[C@@]1(C)CO`, the TGI in the assay with HOP-92 NSCLC, with HS 578T breast, with SNB-19 CNS, with EKVX NSCLC, with UO-31 renal and in the assay on HCT-116 colon was more than 100 µM in each case. The compound further registered a TGI in the assay with HCT-15 colon of more than 100 µM.

As for `CC1=NN(c2nc(N)nc(/C(C#N)=C\c3ccc([N+](=O)[O-])s3)n2)C(C)(C)C1`, the concentration for total growth inhibition (TGI) in the assay on MCF7 breast is 0.375 µM; in the assay on HS 578T breast, more than 100 µM; with OVCAR-8 ovarian, 0.21 µM; in the assay with NCI-H522 lung, 0.354 µM; with SNB-19 CNS, 5.97 µM; in the assay on EKVX NSCLC it was 4.28 µM. Also, the TGI in the assay on IGROV1 ovarian was 0.287 µM; in the assay on UO-31 renal, 0.278 µM; in the assay on HCT-116 colon it was 1.23 µM; with HCT-15 colon it was 0.325 µM.

In the case of `O=C(N/N=C(\c1ccccc1)c1ccccn1)NC1CCCCC1`, the TGI with HOP-92 NSCLC, with HS 578T breast, in the assay with NCI-H522 lung, with SNB-19 CNS, in the assay on EKVX NSCLC and with IGROV1 ovarian was more than 100 µM each time. The TGI in the assay with UO-31 renal, in the assay on HCT-116 colon and with HCT-15 colon was more than 100 µM throughout.

As for `BrC1=C(Br)C2(SCCS2)[C@H]2C[C@@H]1c1ccccc12`, the TGI in the assay on MCF7 breast, in the assay on HL-60(TB) leukemia, in the assay on HOP-92 NSCLC, with OVCAR-8 ovarian, in the assay with NCI-H522 lung and in the assay on SNB-19 CNS was more than 100 µM throughout. The concentration for total growth inhibition (TGI) in the assay on EKVX NSCLC was more than 100 µM; in the assay on IGROV1 ovarian, more than 100 µM; in the assay on UO-31 renal, more than 62.3 µM; in the assay on HCT-116 colon, more than 100 µM; in the assay with HCT-15 colon, more than 100 µM.

`CCO/C(O)=C(/C(=N)N1CCOCC1)C(=O)Nc1ccc(F)cc1`: the concentration for total growth inhibition (TGI) with MCF7 breast, in the assay with HL-60(TB) leukemia, in the assay with HS 578T breast, in the assay on OVCAR-8 ovarian, in the assay on NCI-H522 lung and in the assay with SNB-19 CNS was more than 100 µM each time. In addition, the TGI with EKVX NSCLC, with IGROV1 ovarian, in the assay on HCT-116 colon and in the assay on HCT-15 colon was more than 100 µM throughout.

For the origin of these results see PubChem BioAssay (NCI).
